{"source": "patent US10039825B2", "about": "“Combination therapy with CD4 lymphocyte depletion and MTOR inhibitors” (Cedars-Sinai Medical Center, priority 2010, dated 2018)", "key": {"[1]": {"system": "C57 BL/6 or Pmel-1 mouse lymph node lymphocytes", "assay": "[3H] thymidine incorporation assay of stimulated lymph node lymphocytes", "assay_type": "cell-based", "conditions": "lymphocytes stimulated with anti-CD3 and anti-CD28 mAb or gp100 peptide, 72 hours; FIG. 1A", "experimental": "As has been well established, mTOR inhibitors have immune suppressing activity. For the [3H] thymidine incorporation assay, lymph nodes were harvested from naïve C57 BL/6 or Pmel-1 mouse, 3×10^5 cells/well were cultured in 96-well plates and stimulated, with or without mTOR inhibitors, for 72 hours. C57 BL/6 lymphocytes were stimulated with anti-CD3 and anti-CD28 mAb, and Pmel-1 lymphocytes were stimulated with […]. DNA synthesis was determined by incubation for 16 h with 1 μCi [3H]thymidine (Amersham Biosciences, Piscataway, N.J., USA)."}, "[2]": {"system": "CD4+FoxP3+ lymphocytes", "assay": "in vivo effect on CD4+FoxP3+ lymphocytes (flow cytometry)", "design": "species or system B6 mice", "conditions": "treated daily for 24 days; FoxP3 staining gated on CD4; FIG. 1B", "experimental": "Further, in vivo effect of temsirolimus on CD4+FoxP3+ lymphocytes was assessed. B6 mice (5 mice per group) were treated daily with temsirolimus for 24 days, 2 doses of vaccine (complex of hsp110 and gp100), or both. FoxP3 staining was quantified with flow cytometry while gating on CD4. […] Representative results are shown from at least 2 independent experiments."}, "[3]": {"system": "RENCA tumor cells", "assay": "RENCA tumor re-challenge after treatment (antitumor immune memory)", "assay_type": "in vivo, Balb/c mice", "conditions": "re-challenged with 2×10^5 RENCA cells on day 47; tumor size 11 and 18 days after; FIG. 4", "experimental": "Ten days after subcutaneous implantation of 2×10^5 tumor cells, Balb/c mice were treated with temsirolimus (30 ug/mouse daily on days 14 to 34, intraperitoneally) or temsirolimus plus CD4 depleting antibody (intraperitoneal injection of 200 μg of GK1.5 mAb, administered at day 6 and 10). Mice were re-challenged with 2×10^5 RENCA tumor cells on day 47. Naïve mouse group was also challenged with RENCA and served as a control. Tumor size was measured 11 and 18 days after the re-challenge. […] Since the mice were not being actively treated at the time of tumor re-challenge, direct antitumor effects of the therapy cannot account for the effects on tumor growth."}}, "data": [{"compound": "CO[C@H]1C[C@@H]2CC[C@@H](C)[C@@](O)(O2)C(=O)C(=O)N2CCCC[C@H]2C(=O)O[C@H]([C@H](C)C[C@@H]2CC[C@@H](OC(=O)C(C)(CO)CO)[C@H](OC)C2)CC(=O)[C@H](C)/C=C(\\C)[C@@H](O)[C@@H](OC)C(=O)[C@H](C)C[C@H](C)/C=C/C=C/C=C/1C", "note": "[temsirolimus, Temsirolimus]", "values": [{"measurement": "immune suppressing activity, DNA synthesis by [3H]thymidine incorporation", "setting": "[1]", "value": "nearly identical activities"}, {"measurement": "Foxp3 positive lymphocytes (regulatory T cells)", "setting": "[2]", "value": "increased"}, {"measurement": "tumor growth after re-challenge", "setting": "[3]", "value": "grew at the same rate"}]}]}
